# Measurements as given in patent US20200393447A1, “BIOSENSORS FOR MEASURING CELL SIGNALING IN STRESSED AND HEALTHY CELLS” (MONTANA MOLECULAR LLC, priority 2017, published 2020).
# Key:
# Type in all cases: cell-based
# HEK293T cells [1] = assay: Multiplex Ca2+ biosensor (SEQ ID NO: 4) in cells stressed with thapsigargin, carbachol stimulation
# Protocol: In order to analyze the calcium response of cells exposed to an ER-stress inducing molecule, HEK293T cells transfected with the nucleic acid construct described in FIG. 1 were exposed to thapsigargin to induce ER stress. Thapsigargin is an inhibitor of the sarcoplasmic/endoplasmic reticulum Ca^2+ ATPase that inhibits the autophagic process and induces ER stress. The calcium signaling properties of the thapsigargin-treated cells was measured as described below. HEK293T cells were transfected with SEQ ID NO: 4 as follows. 27,000 cells per well in 100 μL of EMEM media were plated onto Greiner 96-well plates coated with poly-D lysine. The cells were incubated for 24 hours at 37° C. and 5% CO2. 100 ng of plasmid DNA expressing SEQ ID NO: 4 and 10 ng of plasmid expressing human muscarinic receptor 1 were then transfected using FUGENE as follows. 100 ng of DNA expressing SEQ ID NO: 4 and 10 ng of DNA expressing human muscarinic receptor 1 were combined with 0.4 μL of FUGENE and brought to a final volume of 50 μL using OPTIMEM serum free media and incubated for 20 mins at 25° C. then added to the cells. After 16 hours the cells were treated with a final concentration of 1 μM thapsigargin for 5 hours to induce ER stress. The cells were then washed 5× with 100 μL DPBS and 150 μL of DPBS was added to the wells. The cells were imaged using a Zeiss Axiovert fluorescence microscope using standard Green Fluorescent Protein (GFP) and Red Fluorescent Protein (RFP) excitation and emission filters. Images were obtained in both the red and green channels every 2 seconds for 100 seconds. A final concentration of 50 μM carbachol was added to the wells to stimulate Gq signaling after 20 seconds, releasing intracellular Ca^2+ stores for detection by the biosensor. The images were analyzed as follows. Cells were identified as either stressed or unstressed based on their green fluorescence intensity. The Ca^2+ signaling response upon Gq stimulation was monitored in the red fluorescence channel.
# HEK293T cells [2] = assay: Multiplex Ca2+ biosensor (SEQ ID NO: 4) in cells stressed by P23H rhodopsin mutant, carbachol stimulation; conditions: 50 μM, P23H rhodopsin mutant co-expressed
# Protocol: In order to analyze the calcium response of cells expressing a mutant protein, HEK293T cells were transfected with both the nucleic acid construct described in FIG. 1 and a mutant rhodopsin protein (P23H). The P23H mutation in rhodopsin causes retinitis pigmentosa (Rivolta et al. 2002), an inherited form of blindness that develops gradually over the first decade of life.
# The experiment in FIG. 4 was conducted the same as in FIG. 3 with the following modifications. 100 ng of a plasmid expressing the P23H rhodopsin mutation was co-transfected with the plasmid expressing SEQ ID NO: 4 and 10 ng of human muscarinic receptor 1. After 24 hours the cells were treated with 50 μM carbachol as described in Example 1 above, and the Ca^2+ signaling was monitored in the red fluorescence channel for cells identified as stressed or unstressed based on their green fluorescence intensity.
# HEK293T cells [3] = assay: RT-PCR of spliced/unspliced sensor mRNA (XBP1 intron splicing) after thapsigargin
# Text: A second nucleic acid construct (SEQ ID NO: 6) was constructed and tested. This nucleic acid construct is a red fluorescent protein (RFP) with a nuclear localization sequence, placed upstream of the XBP1 intron sequence. A T2A peptide encoding sequence is placed after the RFP sequence. This is followed by a partial sequence from the endogenous XBP1 gene that encodes a region of the protein important for regulating its stability. This partial XBP1 sequence is fused to the mNeonGreen coding sequence. Upon stress activation the XBP1 intron sequence is removed, this removes a stop codon, shifts the reading frame, and allows for translation of the XBP1-mNeonGreen fusion construct. This construct was transfected into HEK293T cells, which were then treated with 1 μM thapsigargin or DMSO vehicle control to induce ER stress. Isolated mRNA from the treated cells was then analyzed for intron splicing using RT-PCR (see van Schadewijk et al., 2012).
# (§1) HEK293T cells were transduced with 25 μL of the nucleic acid construct of SEQ ID NO: 6. The construct was transduced into 48,000 HEK293T cell in FluoroBrite media and the cells were incubated at 37° C. and 5% CO2 for 16 hours. A final concentration of 1 μM thapsigargin was added to the cells. For RT-PCR analysis a total of 2 μg of total RNA was isolated form 6 wells of cells grown on 96-well Greiner plates coated in poly-D-lysine. […] PCR products were then analyzed on a 2% agarose gel. […] All images were obtained using a Zeiss Axiovert fluorescence microscope with standard RFP and GFP excitation and emission filter sets. […] The media was supplemented with 25 mM HEPES and the cells were incubated in the BioTek Synergy MX plate reader at 37° C. for 24 hours. Green fluorescence was monitored using excitation and emission wavelengths of 485 nm and 528 nm respectively, while red fluorescence was monitored using 558 nm/603 nm excitation and emission wavelengths. […] The percentage of change in green, red, and green/red ratio fluorescence was then calculated.
# HEK293T cells [4] = assay: Two-color stress sensor fluorescence monitored over 24 hours after thapsigargin; conditions: 1 μM vs DMSO, 24 hours monitoring
# Protocol: as §1, with “poly-D-lysine. RNA was isolated using the Zymo Quick RNA microprep kit according to the manufacturer's instructions. mRNA was converted to cDNA by reverse transcription using M-MLV reverse transcriptase from Promega and an oligo dT primer according to the manufacturer's instructions.” for “poly-D-lysine.”
# [5] = tested on: iPSC-derived peripheral neurons; assay: Two-color stress sensor (SEQ ID NO: 6): percentage of ER-stressed cells after chemotherapeutic treatment; conditions: 24 hours of incubation
# Text: The two-color biosensor described in Example 5 above (RFP-GFP stress sensor; SEQ ID NO: 6) may be used to calculate the percent of cells undergoing ER stress, and may be used as measurement technique to detect side effects induced by chemotherapeutics. In order to determine the percentage of cells in population experiencing ER-stress following exposure to a ER-stress-inducing compound, iPSC-derived peripheral neurons were transduced with the two-color stress sensor described in Example 5 above. The cells were treated with the chemotherapeutic vincristine at concentrations of 0.0001 μM, 0.01 μM, and 0.1 μM. Measurement of the red fluorescence was used to identify transduced cells and measurement of green fluorescence identifies stressed cells. Stressed and unstressed cells were counted to quantify the percentage of stressed cells in the population.
# Peri.4U peripheral neurons from Ncardia were plated onto 96-well plates according to the manufacturer's instructions. Cells were incubated for 2 days at 37° C. and 5% CO2 and the media was changed every 24 hours, using Ncardia neuro supplement media. […] Those cells that expressed both the constitutively expressed red nuclear marker and the green, stress induced, nuclear fluorescence were considered stressed, while those only expressing the red marker were considered unstressed. […]
smiles,measurement,setting,value
C[N+](C)(C)CCOC(N)=O [carbachol],Ca2+ response in ER-stressed cells compared to surrounding healthy cells,"HEK293T cells [1]; 50 μM, stressed (mNeonGreen) vs unstressed cell","blunted, smaller amplitude response"
same,red fluorescence of Ca2+ biosensor after treatment,"HEK293T cells [1]; 50 μM, thapsigargin-treated cells",visible increase in red fluorescence
same,"release of intracellular Ca2+ stores, stressed vs unstressed cells",HEK293T cells [2],blunted in the stressed cells compared to the unstressed cells
C/C=C(/C)C(=O)O[C@H]1C(C)=C2[C@H]([C@@H]1OC(=O)CCCCCCC)[C@@](C)(OC(C)=O)C[C@H](OC(=O)CCC)[C@@]1(O)[C@H]2OC(=O)[C@@]1(C)O [thapsigargin],persistence of spliced sensor band (recovery from stress),HEK293T cells [3]; 1 μM,disappears after 24 hours
same,time of peak intensity of spliced sensor band post-treatment,HEK293T cells [3]; 1 μM,2.5 h
same,appearance of spliced version of the sensor (lower band),"HEK293T cells [3]; 1 μM vs DMSO, 30 minutes, 2.5, 6 and 24 hours",appears only in the thapsigargin treated cells
same,green stress induced fluorescence over time,HEK293T cells [4],"appears rapidly, then disappears by 24 hours"
same,mNeonGreen expression (ER stress marker),HEK293T cells [1]; 1 μM for 5 hours,the mNeonGreen protein due to the ER stress induced by the thapsigargin treatment
CC[C@]1(O)C[C@H]2CN(CCc3c([nH]c4ccccc34)[C@@](C(=O)OC)(c3cc4c(cc3OC)N(C=O)[C@H]3[C@@](O)(C(=O)OC)[C@H](OC(C)=O)[C@]5(CC)C=CCN6CC[C@]43[C@@H]65)C2)C1 [vincristine],percentage of stressed cells compared to control treatment,"[5]; 0.01 μM, p<0.00011",statistically significant percentages of stressed cells
same,percentage of stressed cells compared to control treatment,"[5]; 0.1 μM, p<2.3e−05",statistically significant percentages of stressed cells
